These results are taken from US20110294732A1, “ERYTHROPOLETIN COMPLEMENTATION OR REPLACEMENT” (Universite De Strasbourg, priority 2007, published 2011).

One series deals with whole blood. Briefly: In vitro P50 of whole blood after incubation with effector, mouse. The format is cell-based. The protocol: For the in vitro experiments, ITPP was dissolved in deionized water, pH was adjusted to pH 7 and, for incubation with whole blood, the osmolarity of the ITPP solutions was adjusted with glucose to 270-297 mOsM. Mixtures of hemoglobin and ITPP were measured with a HEMOX analyzer (PD Marketing, London) immediately after mixing. Red blood cells were incubated with ITPP for 1 hour at 37° C. Following incubation, the cells were washed 3 times with Bis-Tris-buffer (pH=7.0) and then used for P50 measurement.
ITPP was tested along with a cholesteroyl derivative (here designated as kf96) (both at 60 mM) as effectors for P50 shifts in whole blood of three species: human, mouse and pig. As usual, pHs for the compound-solutions were adjusted to ca. 7.0, osmolarities for both solutions were determined (325-373 mOsM) prior to treatment with the effectors, and whole blood volumes at 1:1 ratios were incubated.

The next series has as its system circulating RBC. Briefly: P50 shift of circulating RBC after oral administration in drinking water. In kind it is in vivo, C57BL/6 mice. The method, then: In experiments conducted in vivo in which ITPP was administered orally, ITPP was dissolved in drinking (not deionized) water at a 20 g/L-concentration (=27 mM, pH 7.0) and offered for drinking ad libitum. A significant shift of the P50 value of circulating RBCs was observed.
(§1) Twelve C57BL/6 mice drank ITPP over 4 days (about 25 ml/24 hrs). Seven Control mice drank either pure water (three mice), or a solution of IHP (inositol hexaphosphate without the internal pyrophosphate rings) at the same concentration and pH as ITPP (4 mice). […] Blood was collected from the tail vein of the 12 C57BL/6 mice on day 0 (before treatment started), 1, 2, 4, 6, 7, 8, 10, 11 and 12, in order to measure P50 values. […] Oral application of ITPP caused significant right shifts of P50 (up to 31%) in mice.
The 12 mice were observed over 12 days, the P50 values of their circulating RBC were measured almost daily. […] It appears that all mice ingesting the aqueous solution of ITPP present a shift of the P50 value of their circulating RBC, albeit with individual differences. FIG. 8 illustrates the individual differences in the P50 shift induced in the mice by ingestion of the aqueous solution of ITPP.

Series [1] is described as follows: Blood counts of mice after oral ingestion. The format is in vivo. An excerpt:
Blood from mice that ingested ITPP or IHP in water (for 4 days) or water only was collected on day 0, 7 and 11, in order to assess any differences in the blood count (and the amount of erythropoietin in the sera) of treated and control mice. […] The amount of blood from the other mice was not sufficient to determine the blood count.

The nature of series [2]: Tolerability of oral treatment in mice. The format is in vivo, C57BL/6 mice. The settings on record: drinking over 4 days. The method, then:
as §1

The next series relates to porcine RBCs. Briefly: P50 shift of porcine RBCs after intravenous injection. In kind it is in vivo, piglet. The following applies: intravenous 1 g ITPP/kg body weight. The protocol: An in vivo experiment was performed on one 8 week-old normal piglet (body weight: 17 kg). The piglet was anesthesized with 5% Isoflurane, 0.7 L/min N2O and 2.0 L/min O2 for 20-30 minutes, when ITPP was injected, or blood was taken from the ear vein, respectively. The compound injected intravenous at a concentration of 27 g ITPP/100 ml water (volume injected: 63 ml, pH 6.5, containing 17 g ITPP=1 g/l kg body weight) was not harmful to the animal, when injected into the piglet's ear vein over at least 10 minutes.
Intravenous injection of 1 g ITPP/kg body weight caused a significant right shift of the P50-value (up to 20%) in porcine RBCs. An almost saturated ITPP solution, pH 6.7, was injected intravenously into two piglets (both of ca. 18 kg body weight) (27 g ITPP/100 ml=1.5 g/kg body weight) over 20 minutes.

The nature of series [3]: Tolerability of ITPP injection in mice. In kind it is in vivo, C57B1/6 mice. The protocol:
Blood from C57B1/6 mice collected 2 hrs and 1 day after injection of 45, 60, 120 and 150 mM solutions of ITPP was measured for P50-shifts as reported. […] No animal died or seemed to suffer from the compound.

Another series can be described thus: Effort capacity test. In kind it is in vivo, normal wild-type mice. The settings on record: normal animals, maximum. The source says: The effort capacity of normal animals may be enhanced by up to 100% by ITPP administration, since more oxygen can be delivered to the working muscle.

Several values for one entry are separate records, joined by “and”; a condition that tells them apart may be missing. Equal entries are not always repeated. A value given as a limit tells only on which side of the number the result lay.

On to `O=P1(O)OC2C3OP(=O)(O)OP(=O)(O)OC3C3OP(=O)(O)OP(=O)(O)OC3C2OP(=O)(O)O1` (centres unmarked) [ITPP, inositol-tripyrophosphate], for which the “P50 increase, % (ITPP)” value in the series with whole blood (mouse whole blood, 60 mM) is 29%. Further, in the series on whole blood (mouse whole blood, 60 mM, control 36.7), the “P50 mm Hg effector ITPP” value is 47.4 mm Hg. The “shift of the P50 value to higher PO2” value with whole blood (murine whole blood) is “up to 40%”. Besides, the “time for P50 values to return to control values” with circulating RBC (ingestion stopped on day 4) is on record as ≤ 12 days. Also, in the series on circulating RBC (oral, 27 mM), the “time lag before the maximum P50 shift is attained” value is “about 48 hrs”. Also, the “right shift of P50” value in the series on circulating RBC (oral, 20 g/L (27 mM) in drinking water over 4 days) is reported as “up to 31%”. In addition, in the series with circulating RBC (single mouse, oral in water for 4 days, day 7), the “P50 day 7, %” value is 13% and 14% and 20% (2×) and 16% (2×) and 15% and 7% and 9%. Besides, the “P50 day 10, %” value with circulating RBC (single mouse, oral in water for 4 days, day 10) is 10% (3×) and 6% and 12% and 16% and 8% and 11% and 9%. In addition, the “time until the basal value of the RBC count is restored” value in series [1] (after ingestion, once ΔP50 becomes 0%) was 12 days. Moreover, in series [1] (oral ingestion for 4 days), the “number of RBCs” value is reported as “reduced significantly” and the “number of white blood cells versus other groups” value is “no major differences”. In series [1] (single mouse, oral in water for 4 days, day 7, day 0 count 8.9-11.8), the “RBC × 10^6/mm^3 (day 7)” value is 6.60 10^6/mm^3 and 5.73 10^6/mm^3 and 6.35 10^6/mm^3 and 5.64 10^6/mm^3 and 5.45 10^6/mm^3 and 8.76 10^6/mm^3 and 7.70 10^6/mm^3 and 6.54 10^6/mm^3 (2×). Also, the “tolerability of oral treatment” value in series [2] is listed as “No C57BL/6 mouse seemed to suffer”. Besides, the “right shift of the P50-value” with porcine RBCs is given as “up to 20%”. Further, the tolerability entry in series [3] (ip, concentrations up to 150 mM, no animal died) is recorded as “well tolerated”. For the same compound, in series [3] (mice, concentration of 120 mM), the tolerability result is recorded as “well tolerated”. Further, the “enhancement of the effort capacity” value in “Effort capacity test” is “up to 100%”.
